Assay results published in ChEMBL document CHEMBL1130827, “Molecular lipophilicity potential by CLIP, a reliable tool for the description of the 3D distribution of lipophilicity: application to 3-phenyloxazolidin-2-one, a prototype series of reversible MAOA inhibitors” (Bioorg Med Chem Lett, 1998).

Legend:
[1] = Logarithm of capacity factor was determined; format: ADME
[2] = molecular target: T1, Amine oxidase [flavin-containing] A (Homo sapiens, UniProt P21397); assay: Monoamine oxidase A inhibitory potency; settings: read-out: KiA
T1 sequence (P21397 whole entry): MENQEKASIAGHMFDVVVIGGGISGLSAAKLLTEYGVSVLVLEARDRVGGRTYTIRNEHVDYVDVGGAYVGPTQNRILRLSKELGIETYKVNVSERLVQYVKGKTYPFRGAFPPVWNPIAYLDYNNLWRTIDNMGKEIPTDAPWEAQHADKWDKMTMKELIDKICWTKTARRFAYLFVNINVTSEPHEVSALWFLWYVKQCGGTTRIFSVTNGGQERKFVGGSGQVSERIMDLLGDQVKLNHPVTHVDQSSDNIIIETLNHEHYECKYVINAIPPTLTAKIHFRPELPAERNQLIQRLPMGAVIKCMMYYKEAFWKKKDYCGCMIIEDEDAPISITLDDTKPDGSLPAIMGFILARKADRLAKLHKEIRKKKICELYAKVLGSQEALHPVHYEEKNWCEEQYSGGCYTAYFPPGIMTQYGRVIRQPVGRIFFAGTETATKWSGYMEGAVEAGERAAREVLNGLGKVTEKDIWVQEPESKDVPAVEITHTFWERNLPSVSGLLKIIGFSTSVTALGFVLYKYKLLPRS

[3] = Partition coefficient (logP); format: physicochemical; settings: octanol/water

**Q.** For `COC[C@H]1CN(c2ccc(OCCC(C)=O)cc2)C(=O)O1`, which Log kw [1] is on record?
**A.** The Log kw was 1.43.

**Q.** What about the Ki [2] of the same compound?
**A.** The Ki was 0.046 µM.

**Q.** And the logP [3]?
**A.** Its logP is 1.37.

**Q.** With `COC[C@H]1CN(c2ccc(OCC[C@@H](C)O)cc2)C(=O)O1` as the compound, how does the Log kw [1] read?
**A.** Its Log kw is 1.6.

**Q.** And the Ki [2]?
**A.** Its Ki is 0.0065 µM.

**Q.** What about the logP [3] of the same compound?
**A.** Its logP is 1.71.

**Q.** Which results are given for `COC[C@H]1CN(c2ccc(OCC[C@@H](O)C(F)(F)F)cc2)C(=O)O1` [BEFLOXATONE]?
**A.** Log kw [1]: 2.45; Ki [2]: 0.0035 µM; logP [3]: 2.48

**Q.** With `COC[C@H]1CN(c2ccc(OCCCCO)cc2)C(=O)O1` as the compound, how does the Log kw [1] read?
**A.** Its Log kw is 1.58.

**Q.** And the Ki [2]?
**A.** The Ki was 0.029 µM.

**Q.** What about the logP [3] of the same compound?
**A.** The logP was 1.84.

**Q.** For `COC[C@H]1CN(c2ccc(OCCCC(C)O)cc2)C(=O)O1` (stereo partly drawn), which Log kw [1] is on record?
**A.** The Log kw was 1.88.

**Q.** And the Ki [2]?
**A.** The Ki was 0.013 µM.

**Q.** What about the logP [3] of the same compound?
**A.** Its logP is 2.27.

**Q.** With `C=C(C)CCOc1ccc(N2C[C@H](COC)OC2=O)cc1` as the compound, how does the Log kw [1] read?
**A.** Its Log kw is 3.08.

**Q.** And the Ki [2]?
**A.** The Ki was 0.028 µM.

**Q.** And the logP [3]?
**A.** Its logP is 3.03.

**Q.** For `COC[C@H]1CN(c2ccc(OCC[C@@H](C)OC)cc2)C(=O)O1`, which Log kw [1] is on record?
**A.** Its Log kw is 2.21.

**Q.** What about the Ki [2] of the same compound?
**A.** The Ki was 0.17 µM.

**Q.** What about the logP [3] of the same compound?
**A.** Its logP is 2.7.

**Q.** For `COC[C@H]1CN(c2ccc(OCC(C)O)cc2)C(=O)O1` (stereo partly drawn), which Log kw [1] is on record?
**A.** The Log kw was 1.17.

**Q.** What about the Ki [2] of the same compound?
**A.** Its Ki is 0.22 µM.

**Q.** And the logP [3]?
**A.** The logP was 1.17.

**Q.** With `COC[C@H]1CN(c2ccc(OCCO)cc2)C(=O)O1` as the compound, how does the Log kw [1] read?
**A.** The Log kw was 1.

**Q.** And the Ki [2]?
**A.** Its Ki is 0.39 µM.

**Q.** And the logP [3]?
**A.** The logP was 0.77.

**Q.** For `COC[C@H]1CN(c2ccc(CCCO)cc2)C(=O)O1`, which Log kw [1] is on record?
**A.** The Log kw was 1.3.

**Q.** What about the Ki [2] of the same compound?
**A.** The Ki was 0.0016 µM.

**Q.** What about the logP [3] of the same compound?
**A.** Its logP is 1.27.

**Q.** Which results are given for `COC[C@H]1CN(c2ccc(CCO)cc2)C(=O)O1`?
**A.** Log kw [1]: 1; Ki [2]: 0.08 µM; logP [3]: 1.13
